Measurements: article PMC10687071 (The Journal of Biological Chemistry, 2023)
Substitutions are numbered along the chain they refer to.

Experiments:
[1] = target: T1, F130G mutant EAG1 channels (Mus musculus, UniProt Q60603, F130G); assay: TEVC recording, imipramine inhibition, F130G mutant; format: cell-based; details: F130G mutant EAG1 channel, +50 mV
T1 construct: expressed in transfected cells; host or cells: Xenopus laevis oocytes injected with cRNA
T1 sequence (Q60603 1-989 F130G): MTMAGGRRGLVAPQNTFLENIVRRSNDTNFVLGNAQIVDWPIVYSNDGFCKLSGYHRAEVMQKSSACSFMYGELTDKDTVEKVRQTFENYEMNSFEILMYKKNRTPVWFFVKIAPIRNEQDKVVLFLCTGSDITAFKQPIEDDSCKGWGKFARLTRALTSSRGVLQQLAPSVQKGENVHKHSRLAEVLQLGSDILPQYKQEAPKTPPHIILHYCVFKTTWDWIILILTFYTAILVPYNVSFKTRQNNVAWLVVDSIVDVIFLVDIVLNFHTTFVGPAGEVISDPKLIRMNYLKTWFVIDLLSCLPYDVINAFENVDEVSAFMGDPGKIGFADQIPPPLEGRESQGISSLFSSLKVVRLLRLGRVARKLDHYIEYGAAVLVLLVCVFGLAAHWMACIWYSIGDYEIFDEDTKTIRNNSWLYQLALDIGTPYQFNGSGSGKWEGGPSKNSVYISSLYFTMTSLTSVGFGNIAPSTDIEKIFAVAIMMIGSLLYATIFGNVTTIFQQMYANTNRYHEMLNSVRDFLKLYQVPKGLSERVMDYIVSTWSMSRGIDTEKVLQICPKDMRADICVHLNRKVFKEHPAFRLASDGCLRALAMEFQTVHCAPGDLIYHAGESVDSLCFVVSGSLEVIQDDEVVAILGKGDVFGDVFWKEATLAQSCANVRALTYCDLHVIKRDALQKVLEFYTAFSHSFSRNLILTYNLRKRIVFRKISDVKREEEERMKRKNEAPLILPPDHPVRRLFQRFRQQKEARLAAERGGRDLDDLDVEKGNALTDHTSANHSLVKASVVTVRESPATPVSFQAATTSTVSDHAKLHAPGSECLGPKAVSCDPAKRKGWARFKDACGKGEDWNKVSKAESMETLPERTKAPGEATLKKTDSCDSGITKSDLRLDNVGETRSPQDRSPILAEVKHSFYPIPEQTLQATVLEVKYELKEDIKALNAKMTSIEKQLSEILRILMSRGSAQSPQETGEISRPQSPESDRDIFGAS
Text: (§1) The cDNA encoding wild-type (WT) mouse EAG1 channels in pGH19 vector was kindly provided by G. Robertson (University of Wisconsin-Madison, Madison, WI). The mutant ΔPAS EAG1 channel in pGH19 with the deletion of the PAS domain residues 2 to 130 was generated by Bio Basic Inc and verified by DNA sequencing (Genewiz). Mutant EAG1 channels with single amino acid substitutions were generated by Genewiz and verified by DNA sequencing. cRNA was transcribed using the T7 mMessage mMachine kit (Thermo Fisher Scientific). Defolliculated Xenopus laevis oocytes were purchased from Ecocyte Bioscience or Xenopus1 and injected with the cRNA using a Nanoinject II oocyte injector (Drummond).
(§2) For EAG1 current recordings, oocytes were placed into a handmade chamber containing a bath solution for the current recording. The currents were recorded using a TEVC technique with OC-725C amplifier (Warner Instruments) and pClamp11 software (Molecular Devices). The signals were digitized using Digidata 1550 (Molecular Devices). Patch pipettes were pulled from borosilicate glass and had resistances of 0.7 to 1.5 MΩ. The recording (bath) solution contained 96 mM NaCl, 4 mM KCl, 0.1 mM CaCl2, 1.8 mM MgCl2, and 5 mM HEPES, pH 7.5. The pipette solution contained 3 M KCl. […]

[2] = target: T2, Y71F mutant EAG1 channels (Mus musculus, UniProt Q60603, Y71F); assay: TEVC recording, imipramine inhibition, Y71F mutant; format: cell-based; details: Y71F mutant EAG1 channel, +50 mV
T2 construct: expressed in transfected cells; host or cells: Xenopus laevis oocytes injected with cRNA
T2 sequence (Q60603 1-989 Y71F): T1 sequence (Q60603 1-989 F130G) with Y71F, G130F
Text: as §1, §2

CN(C)CCCN1c2ccccc2CCc2ccccc21 [imipramine] gave an IC50 [1] of 52.8 ± 5 µM and an IC50 [2] of 58 ± 3.7 µM.
